The subject of one data set is yeast strain BY4742. Description: Detection of leucine by bioluminescence of leucine-auxotrophic BY4742 carrying pRS426-Lux (Example 4). It counts as cell-based, Saccharomyces cerevisiae. The following applies: CSM-Leu-URA medium, leucine added after 5 h incubation, FIG. 4. How it is done:
(§1) D-Luciferin sodium salt (Carl Roth, Germany) was dissolved in 0.1 M Na2 HPO4-citrate buffer pH 5 to a final luciferin concentration of 1 mM. 100 μl of an overnight yeast culture was adjusted depending on the experimental question to a suitable starting OD600 of around 1.0 or less in CSM medium. 100 μl of yeast cells, 25 μl of a test solution (e.g., amino acid), and 25 μl of 1 mM luciferin solution were added in this order to a well of a black 96-well microtiter plate with a transparent bottom (Microplate, 96 well, PS, F-Bottom (Chimney Well) μClear®, Black, Med. Binding; Greiner bio-one, Germany) for a measurement. Measurements were performed using a Tristar2S Platereader (Berthold, Germany) at a constant temperature of 28° C.
The yeast strain BY4742 used by the inventors has several auxotrophies, including leucine auxotrophy, which makes this strain useful for leucine detection. For this purpose, the strain was grown overnight in CSM-URA medium. […] After 5 h of incubation, a defined amount of leucine was added and luminescence was subsequently measured (FIG. 4). […] The relationship between available leucine and measured bioluminescence behaves in a concentration-dependent manner within a certain concentration range, so that the leucine concentration can be correlated and measured with the bioluminescence.

The test system of data set [1] is S. cerevisiae strain BY4742. In words: Luminescence comparison of bacterial luciferase construct with Firefly luciferase in BY4742 (Example 2). It counts as cell-based, Saccharomyces cerevisiae. How it is done: as §1
The luciferase from Photinus pyralis was chosen for comparison because it is most commonly used in bioanalysis (see FIG. 6).
After both plasmids have the same genetic requirements, such as FBA1 promoter and terminator, the same vector backbone and were also transformed into BY4742, both plasmids could be directly compared. The experiment was performed twice with three technical replicates each time. The cultures were grown overnight at 28° C. and were each diluted with 50 μl of fresh medium (YPD medium). For the produced prototype (nucleic acid according to the invention, SEQ ID NO: 7), water was added instead of 50 μl of the luciferin solution (2 mM final concentration).
The luminescence of the Firefly luciferase is about 100,000 RLU. In contrast, the […]. After 5.4 h, only a low luminescence of 6893 can be measured (see FIG. 2D). The CSM-URA plates were photographed in daylight (FIG. 2A) and in complete darkness (FIG. 2B) by a commercial photographic camera. The naked eye was also able to perceive the light produced by the yeasts.

This note sets out measurements from patent US12644104B2, “Detection of environmental influences by bioluminescence” (priority 2020, dated 2026).

For the compound `CC(C)C[C@H](N)C(=O)O` [leucine], in the data set on yeast strain BY4742, the “leucine concentration from which organisms grow and light signal increases regardless of concentration” value is listed as over 49 mg/L; the “leucine concentration with limiting effect on cell metabolism and maximum possible bioluminescence” value was “less than 20 mg/L”.
As for “Firefly luciferase: plasmid encoding Photinus pyralis luciferase under the FBA1 promoter and terminator, same pRS426 backbone”, the initial luminescence in data set [1] (BY4742, FBA1 promoter/terminator, YPD, luciferin 2 mM added only for Firefly, FIG. 2D) is reported as 52,475 RLU. The “luminescence after 5.4 h” value in data set [1] (BY4742, FIG. 2D, luciferin added only for Firefly) turned out to be 6893 RLU. For the same compound, the “luminescence after 1.7 h” value in data set [1] (BY4742, luciferin 2 mM final, FIG. 2D) is 19,143 RLU.
